{
  "source": "patent US11000542B2",
  "about": "“Treatment and prevention of the common cold using povidone-iodine” (FIREBRICK PHARMA LIMITED, priority 2014, dated 2021)",
  "key": {"[1]": {"test_system": "colds due to picornaviruses", "conditions": "cited from earlier work"}, "[2]": {"assay": "Intranasal tolerability of aqueous PVP-I preparations (inventors' finding)", "assay_type": "in vivo, human", "conditions": "repeated, frequent use", "source_text": "With respect to the intranasal tolerability of PVP-I, as distinct from ciliotoxicity, the present inventors have discovered that when the concentration of PVP-I in aqueous preparations is greater than 1.0%, the preparation may be irritating to the nasal mucosa in some individuals and not suitable for repeated, frequent and general use, as would be required in the effective treatment or prevention of the common cold. On this consideration, a preferred composition for nasal use is a concentration of PVP-I at or below 1.0%."}, "[3]": {"test_system": "herpes simplex virus (HSV)", "conditions": "Wutzler et al (2002); cited from earlier work"}, "[4]": {"test_system": "common cold", "conditions": "throat gargle; cited from earlier work"}, "[5]": {"conditions": "typical; cited from earlier work"}, "[6]": {"test_system": "human influenza virus", "conditions": "very low concentrations; Reimer et al (2002); cited from earlier work"}, "[7]": {"test_system": "adenovirus", "conditions": "Reimer et al (2002), Wutzler et al (2002); cited from earlier work"}, "[8]": {"test_system": "human rhinovirus (HRV)", "conditions": "cited from earlier work"}, "[9]": {"test_system": "nasal cilia", "conditions": "Kramer et al (2002), cited from earlier work"}, "[10]": {"test_system": "monocytes", "conditions": "Van den Broek et al (1982); cited from earlier work"}, "[11]": {"test_system": "granulocytes", "conditions": "Van den Broek et al (1982); cited from earlier work"}},
  "data": [
    {"molecule": "Cc1cc(CCCOc2c(C)cc(-c3noc(C(F)(F)F)n3)cc2C)on1", "note": "[pleconaril]", "values": [
      {"measurement": "cytochrome P450 induction", "setting": "[1]; FDA Advisory Committee review of 2002 NDA", "result": "a risk of cytochrome P450 induction"},
      {"measurement": "reduction in cold duration", "setting": "[1]; Phase III data", "result": "one"},
      {"measurement": "Time to Alleviation of Illness (TAI), cold duration", "setting": "[1]; phase three study, Hayden et al (2003)", "result": 6.3, "unit": "days"}
    ]},
    {"molecule": "povidone-iodine [PVP-I]", "values": [
      {"measurement": "PVP-I concentration in aqueous preparations that may be irritating to the nasal mucosa in some individuals", "setting": "[2]", "result": "greater than 1.0%"},
      {"measurement": "exposure for a microbicidal effect (4 log reduction)", "setting": "[3]", "result": 30, "unit": "seconds"},
      {"measurement": "effect of gargling on cold symptoms and incidence", "setting": "[4]", "result": "no significant effect on nasal cold symptoms or bronchial complications, and no benefit in terms of reducing the incidence of the common cold"},
      {"measurement": "free iodine in PVP-I solutions", "setting": "[5]", "result": "less than 30 ppm"},
      {"measurement": "exposure for a 4 log10 reduction in viable virus count", "setting": "[6]", "result": "≤ 30", "unit": "second"},
      {"measurement": "exposure required for a 4 log reduction (microbicidal effect)", "setting": "[7]", "result": 5, "unit": "minutes"},
      {"measurement": "log reduction in HRV", "setting": "[8]; 30 second exposure, Wutzler et al (2002)", "result": 1.1, "unit": "log"},
      {"measurement": "reduction in viable virus count", "setting": "[8]; 30 seconds exposure, any concentration, Reimer et al (2002)", "result": "~1", "unit": "log"},
      {"measurement": "exposure required for a 4 log reduction (microbicidal effect)", "setting": "[8]; in vitro, Reimer et al (2002), Wutzler et al (2002)", "result": 30, "unit": "minutes"},
      {"measurement": "microbicidal effect against HRV", "setting": "[8]; maximum exposure period tested 10 minutes, Kawana et al (1997)", "result": "failed to produce a microbicidal effect against HRV"},
      {"measurement": "PVP-I concentration toxic to the nasal cilia (ciliotoxic)", "setting": "[9]; Reimer et al (2002): complete loss of ciliary function", "result": "≥ 2.5", "unit": "%"},
      {"measurement": "PVP-I concentration not ciliotoxic / suitable for use in the nose", "setting": "[9]; Reimer et al (2002)", "result": "≤ 1.25", "unit": "%"},
      {"measurement": "PVP-I concentration substantially degrading monocytes", "setting": "[10]", "result": "above 0.1%"},
      {"measurement": "PVP-I concentration at which virtually all granulocytes destroyed", "setting": "[11]", "result": "above 0.1%"},
      {"measurement": "PVP-I concentration significantly reducing the viability of granulocytes", "setting": "[11]", "result": "above 0.05%"}
    ]}
  ]
}
